Patent US5283243A, “Piperidinoalkylbenzoxazine and piperidinoalkylbenzothiazine compounds, and medicaments containing them” (Kali-Chemie Pharma GmbH, priority 1990, dated 1994)
Like-named read-outs stand apart in the source and are kept apart here.

Assays:
[1] = test system: Histamine-induced anaphylactoid reaction; experiment: Inhibition of histamine-induced anaphylactoid cutaneous reaction; format: in vivo, Sprague-Dawley rats; details: Rattus norvegicus, 1 h, read-out: % inhibition of Histamine-induced anaphylactoid reaction
Procedure: (§1) 1. Determining Inhibition of Passive Cutaneous Anaphylaxis (PCA) and Histamine-Induced Anaphylactoid Cutaneous Reaction
(§2) The inhibition of the passive cutaneous anaphylaxis and of the anaphylactoid cutaneous reaction induced by histamine was determined as follows:
To determine the histamine-induced anaphylactoid skin reaction, the animals are injected intradermally in the flank opposite to the antiserum administration with 50 μl of a physiological saline solution containing 0.8 mg/ml histamine directly before the intravenous injection of the solution containing the ovalbumin and the blue dye.
(§3) On the day of the experiment the test substances were dissolved in distilled water which contained 1 vol. % dimethylformamide and 1 vol. % of Tween™ 20 (=polyoxyethylene (20) sorbitan monolaurate). One hour before administration of the ovalbumin challenge, each animal was orally administered 2×10^-5 mole/kg of test substance in 0.5 ml of solution. For comparison purposes a control group received only the solvent.
(§4) The edematous anaphylactic (PCA) and anaphylactoid (histamine-induced) reactions caused by the stimulation of the intravenous ovalbumin injection, which manifested themselves by edema formation, swelling and exudation of blue dye, were evaluated 30 minutes after their initiation by the intravenous ovalbumin injection. This was done by visually determining the extent to which the blue dye emerged at the sites of edema formation. The percentage inhibition of anaphylactic and anaphylactoid reactions induced by the test substances in comparison with the reactions of the control animals not treated with any test substance was determined using comparison scales.
(§5) The results obtained using compounds of formula I according to the foregoing test methods are shown in the following Table A. The example numbers given for the compounds of formula I relate to the subsequent preparative examples.

mice = experiment: Determination of minimum toxic dose; format: in vivo; details: mouse, per os; lowest dose producing death or severe toxic symptoms, maximum dose 300 mg/kg, 24 hours
Procedure: 2. Determination of Minimum Toxic Dose
Maximum doses of 300 mg/kg of the test substance were administered orally to male mice weighing 20-25 g. The animals were observed carefully for 3 hours for toxicity symptoms. In addition, all symptoms and deaths were recorded over a period of 24 hours after administration. Associated symptoms were also observed and recorded. If death or severe toxic symptoms were observed, additional mice were administered increasingly lower doses. The lowest dose which produced death or severe toxic symptoms is given in the following Table B as the minimum toxic dose.

[2] = test system: Passive cutaneous anaphylaxis (PCA); experiment: Inhibition of passive cutaneous anaphylaxis (PCA); format: in vivo, Sprague-Dawley rats; details: Rattus norvegicus, 1 h, read-out: % inhibition of Passive cutaneous anaphylaxis (PCA)
Procedure: as §1
The PCA reaction is carried out following the methods described by Goose et al. (J.N. Immunology 16 (1969), 749) and by Martin et al. (Arch. Pharmacol. 316 (1981), 186).
The IgE-rich ovalbumin antiserum used in the test was obtained from immunized Brown-Norway rats. The were immunized with an intraperitoneal injection of a mixture of 100 μg of ovalbumin with a Bordetella pertussis suspension (Vaxicoq™, Manufactured by Institute Merieux, containing 5×10^9 organisms and 1.25 mg Al(OH)3). After 20 days the animals were re-immunized with a further intraperitoneal injection of a solution of 10 μg ovalbumin in 0.5 ml physiological saline solution. After a further four days the blood was removed from the animals and centrifuged. The resulting antiserum was stored at -20° C. until use.
as §2
Sprague-Dawley rats having a body weight of 150-180 g were injected intradermally in one flank with 50 μl of a 1:75 dilution of the IgE-rich ovalbumin antiserum in physiological saline solution to passively sensitize them to ovalbumin.
24 hours after sensitization a solution of 8.25 mg/kg of ovalbumin and 26.4 mg/kg of a blue dye (Evans's Blue) was administered to the rats intravenously according to Martin et al. to trigger passive cutaneous anaphylaxis.
as §3, §4, §5

[3] = test system: cyclooxygenase (6-keto-PGF1α release); experiment: Cyclooxygenase inhibition: 6-keto-PGF1α release from zymosan-stimulated mouse peritoneal macrophage cells; format: cell-based; details: Peritoneal macrophage cell; zymosan-stimulated mouse peritoneal macrophage cells, 10^-5 mole/l; read-out: In vitro % inhibition upon release of 6-keto-PGF1α
From the text: (§6) 5. In vitro Determination of Cyclooxygenase Inhibition and 5-Lipoxygenase Inhibition
(§7) After a cell is activated, arachidonic acid contained in cell membranes is metabolized in two ways. Leucotrienes, inter alia leucotriene C4, are formed due to the action of the enzyme 5-lipoxyqenase (=5-LO), and prostanoids are formed due to the action of the enzyme cyclooxygenase (=CO). In in vitro systems these metabolites are secreted from the cell.
(§8) To evaluate the cyclooxygenase-inhibiting and 5-lipoxygenase-inhibiting properties of the test substances, their inhibitory activity on the biosynthesis of the arachidonic acid derivatives leucotriene C4 (=LTC4) and 6-keto-prostaglandin F1α (=6-keto-PGF1 α) was determined in vitro on mouse peritoneal macrophage cells. For this purpose the LTC4 and 6-keto-PGF1 α contents of a mouse peritoneal macrophage cell culture medium were determined by zymosan stimulation as described by Scott et al. (J. Exp. Med. 152 (1980), 324-335) and by Fradin et al., (Prostaglandins, 33 (1987), 579-589).
(§9) A cell suspension containing peritoneal cells from male mice 8-10 weeks old was obtained in a known manner. A solution marketed under the designation RPMI 1640 (Manufactured by Gibco) was used as the cell culture medium, to which heparin (10 international units/ml) and antibiotics were added according to the procedure of Bonney et al. (Biochem. J. 176 (1978) 422-433). The cell suspension was adjusted to a cell concentration of 10^6 cells per ml and distributed uniformly on titer dishes containing 24 1-ml titer cells (wells). These were kept for two hours in a humidified incubator filled with air enriched with 7% CO2. Cells not adhering to the titer well walls were then removed by washing. The remaining macrophage cells adhering to the walls were incubated for about 12 hours in a suspension medium to which 0.1% of bovine serum albumin (BSA=Bovine Serum Albumin) was added. The suspension medium was then replaced by a Hanks salt solution (=Hanks Balanced Salt Solution=HBSS) with 10 mmoles of Hepes (=hydroxyethylpiperazinoethanesulfonic acid) to which a 0.1% strength solution of the test substances in aqueous, 1% strength dimethylformamide or only the solvent had been added. After 15 minutes the arachidonic acid metabolism was stimulated by adding […] of zymosan (=glycoprotein mixture isolated from cell walls of beer yeast, Saccharomyces cerevisiae, Manufactured by Sigma Chemical Co., Munich) per titre cell. After 2 hours samples of the respective supernatant liquid in each cell were examined for their 6-keto-PGF1α and LTC4 contents by an enzyme immunoassay (=EIA). This EIA is carried out following the method of Pradelles et al. (Analytical Chem. 57 (1985), 1170-1173). The determination of LTC4 and the determination of 6-keto-PGF1α were each carried out on suitable dilutions of the samples (1:50 to 1:250 for the LTC4 determination and 1:250 to 1:1,250 for the 6-keto-PGF1α determination) in comparison with a comparative scale. To determine the inhibiting effect of a 10^-5 molar concentration of the compounds, the amounts of reference eicosanoid were determined, and the inhibiting effect was calculated therefrom in % inhibition compared to the measurements of the zymosan controls.

[4] = test system: 5-lipoxygenase (LTC4 release); experiment: 5-Lipoxygenase inhibition: LTC4 release from zymosan-stimulated mouse peritoneal macrophage cells; format: cell-based; details: Peritoneal macrophage cell; zymosan-stimulated mouse peritoneal macrophage cells, 10^-5 mole/l; read-out: In vitro % inhibition upon release of LTC4
From the text: as §6, §7, §8, §9

histamine-(H1)-receptor = molecular target: T1, histamine-(H1)-receptor (Cavia porcellus, UniProt P31389); experiment: Anti-histamine-(H1) effect, inhibition of histamine-induced contraction of isolated guinea pig ileum in vitro; format: cell-based, Dunkin Hartley guinea pigs; details: histamine 5 × 10^-6 mole/l, test substance 10^-6 mole/l
T1 construct: Segments of the ileum 1.5 cm long from Dunkin Hartley guinea pigs; from tissue; host or cells: isolated ileum segments of Dunkin Hartley guinea pigs
Procedure: 3. Investigation of Anti-Histamine-(H1) Effect Based on Histamine-(H1)-Receptor Antagonism In Vitro
To investigate the histamine-(H1)-receptor antagonism of the test substances, the inhibiting effect of the substances on histamine-induced contractions of the smooth muscle was determined in vitro on the isolated organ. Isolated strips of organ from the ileum are suitable for this purpose. In an organ bath of physiological saline solution the smooth muscle strips react to the addition of histamine by contracting. […] The extent of regression of the contraction is an indication of the anti-histamine-(H1) activity of the compounds. The investigation was carried out analogously to the method originally described by Magnus (Pfluegers Arch. 102, 123 (1904)). Procedure for determining the smooth muscle contraction inhibiting effect on isolated guinea pig ileum induced by a 5×10^-6 molar histamine concentration.
Segments of the ileum 1.5 cm long from Dunkin Hartley guinea pigs having a body weight of 300 500 g were used for the test. Each strip was placed in an organ bath of 10 ml of physiological saline solution according to Krebs-Henseleit and attached to a conventional apparatus for isotonic measurement of changes in length of the ileum strips (automated Celaster measuring apparatus), so that the tissue was under 1 g of tension. The bath was kept at a pH of 7.4 and gassed with a mixture of 5% CO2 and 95% 02. After an equilibration phase, an isotonic contraction of the tissue was induced by adding histamine in a final concentration of 5×10^-6 mole/liter and washing it out again after a contact time of 30 seconds. Only tissues samples from which three reproducible contractions were obtained at 10 minute intervals were used in the subsequent test. The test substances were then added in a final concentration of 10^-6 mole/liter, and after 30 seconds contact time histamine was again added up to a concentration of 5×10^-6 mole/liter. The resulting contractions were measured over 30 seconds. The tissue was then washed several times over a period of 10 minutes. Histamine was then added again to stimulate a contraction. The resulting contractions were again measured over 30 seconds. The difference between the amplitude of the contraction obtained by histamine addition alone and the amplitude of the contraction obtained in the presence of the test substance was determined and expressed in terms of % inhibition.
The inhibiting effects on the contractions induced by histamine 30 seconds after administration of the test substance and on the contractions induced by the addition of histamine 10 minutes later are listed in the table.

[5] = rats, 2 × 10^-5 mole/kg dose per os, one hour before challenge
[6] = rats, 2 × 10^-5 mole/kg dose per os, one hour before ovalbumin challenge

T1 sequence (P31389 whole entry): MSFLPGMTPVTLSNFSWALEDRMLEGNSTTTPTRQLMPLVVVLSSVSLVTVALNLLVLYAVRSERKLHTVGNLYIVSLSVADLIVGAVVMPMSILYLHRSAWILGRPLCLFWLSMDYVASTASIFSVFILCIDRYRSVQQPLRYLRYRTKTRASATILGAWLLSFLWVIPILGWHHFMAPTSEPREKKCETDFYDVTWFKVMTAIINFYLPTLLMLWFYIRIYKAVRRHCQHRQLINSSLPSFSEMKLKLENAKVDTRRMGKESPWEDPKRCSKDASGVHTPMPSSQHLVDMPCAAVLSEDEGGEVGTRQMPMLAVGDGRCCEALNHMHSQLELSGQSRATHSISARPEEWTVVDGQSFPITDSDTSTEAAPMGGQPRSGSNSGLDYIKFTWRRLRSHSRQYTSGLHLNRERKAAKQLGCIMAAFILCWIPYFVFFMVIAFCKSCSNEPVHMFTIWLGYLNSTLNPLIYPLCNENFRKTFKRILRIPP

Compound	Minimum toxic dose (mice)	inhibition in vivo at 20 µmol/kg [1, 5]	inhibition in vivo at 20 µmol/kg [2, 6]	inhibition at 10 µM [3]	inhibition at 10 µM [4]	also measured
N#CC1(c2ccccc2)CCN(CCCCC2Sc3ccccc3NC2=O)CC1 (centres unmarked) [Example 15]	300 mg/kg	–	–	–	–	inhibition in vivo at 20 µmol/kg [1]: 10%; inhibition in vivo at 20 µmol/kg [2]: 30%
O=C1Nc2ccccc2OC1CCCCN1CC=C(c2ccccc2)CC1 (centres unmarked) [Example 12]	–	20%	35%	–	–	–
O=C1Nc2ccc(Cl)cc2SC1CCCCN1CCC(Nc2nc3ccccc3n2Cc2ccc(F)cc2)CC1 (centres unmarked) [Example 20]	–	40%	20%	–	–	–
O=C1Nc2ccccc2SC1N1CCC(Cc2ccccc2)CC1 (centres unmarked) [Example 16]	> 300 mg/kg	–	–	70%	97%	–
O=C(c1ccc(F)cc1)C1CCN(C2Sc3ccccc3NC2=O)CC1 (centres unmarked) [Example 4, 2-[4-(4-fluorobenzoyl)-piperidin-1-yl]-2H-1,4-benzothiazine-3(4H)-one]	300 mg/kg	–	–	71%	0%	–
O=C1Nc2ccccc2OC1CCCN1CCC(Cc2ccccc2)CC1 (centres unmarked) [Example 2, 2-[3-(4-benzylpiperidin-1-yl)-propyl]-2H-1,4-benzoxazine-3(4H)-one]	–	–	–	13%	54%	–
S=C1Nc2ccccc2OC1CCCN1CCC(Cc2ccccc2)CC1 (centres unmarked) [Example 3, 2-[3-(4-benzylpiperidin-1-yl)-propyl]-2H-1,4-benzoxazine-3(4H)-thione]	300 mg/kg	–	–	17%	16%	–
O=C1Nc2ccccc2SC1CCCCN1CC=C(c2ccccc2)CC1 (centres unmarked) [Example 10, 2-[4-(4-phenyl-1,2,3,6-tetrahydropyridin-1-yl)-butyl]-2H-1,4-benzothiazine-3(4H)one]	300 mg/kg	30%	55%	30%	37%	–
O=C1Nc2ccccc2SC1CCCCN1CCC(O)(c2ccccc2)CC1 (centres unmarked) [Example 11]	–	20%	45%	–	–	–
O=C1Nc2ccccc2OC1CCCCN1CCC(O)(c2ccccc2)CC1 (centres unmarked) [Example 13]	–	–	–	–	–	in vitro (H1)-receptor antagonism, % inhibition of histamine-induced ileum contractions after 30 seconds (histamine-(H1)-receptor): 49%; in vitro (H1)-receptor antagonism, % inhibition of histamine-induced ileum contractions after 10 minutes (histamine-(H1)-receptor): 8%
COc1ccc2c(c1)SC(CCCCN1CCC(C(=O)c3ccc(F)cc3)CC1)C(=O)N2 (centres unmarked) [Example 18, 7-methoxy-2-(4-[4-(4-fluorobenzoyl)-piperidin-1-yl]-butyl)-2H-1,4benzothiazine-3(4H)-one]	–	50%	90%	–	–	–
O=C1Nc2ccccc2SC1CCCCN1CCC(Nc2nc3ccccc3n2Cc2ccc(F)cc2)CC1 (centres unmarked) [Example 1, 2-{4-[4-(N-(1-(4-fluorophenylmethyl)-1H-benzimidazol-2-yl)-amino)-piperidin-1-yl]-butyl}-2H-1,4-benzothiazine-3(4H)-one]	–	85%	85%	52%	87%	–
O=C1Nc2ccccc2OC1CCCCN1CCC(c2ccccc2)CC1 (centres unmarked) [Example 9]	–	–	–	–	–	in vitro (H1)-receptor antagonism, % inhibition of histamine-induced ileum contractions after 30 seconds (histamine-(H1)-receptor): 35%; in vitro (H1)-receptor antagonism, % inhibition of histamine-induced ileum contractions after 10 minutes (histamine-(H1)-receptor): 12%
